Here are results for 1 compound from US20170066759A1, “AROMATIC 5-MEMBERED HETEROCYCLIC DERIVATIVE HAVING TRPV4-INHIBITING ACTIVITY” (Shionogi & Co., Ltd., priority 2012, published 2017).

pIC50: −log10 of the molar value.

Data set [1] has as its target T1, CYP3A4 enzyme expressed in Escherichia coli (Homo sapiens, UniProt P08684).
T1 construct: host or cells: Escherichia coli
Kind of data set: Test Example 5: CYP3A4 fluorescent MBI test. The class given is in vitro ADME. The conditions noted are these: substrate 7-BFC, pre-reaction 30 minutes, compound 0.625-20 μmol/L. The method, then: CYP3A4 Fluorescent MBI Test
The CYP3A4 fluorescent MBI test is a test of investigating enhancement of CYP3A4 inhibition of a compound of the present invention by a metabolism reaction, and the test was performed using, as CYP3A4 enzyme expressed in Esherichia coli and employing, as an index, a reaction in which 7-benzyloxytrifluoromethylchmarin (7-BFC) is debenzylated by the CYP3A4 enzyme to produce a metabolite, 7-hydroxytrifluoromethylchmarin (HFC) emitting fluorescent light.
The reaction conditions were as follows: substrate, 5.6 μmol/L 7-BFC; pre-reaction time, […] or 30 minutes; reaction time, 15 minutes; reaction temperature, 25° C. […]
An enzyme in a K-Pi buffer (pH 7.4) and a solution of the compound of the present invention as a pre-reaction solution were added to a 96-well plate at the above composition of the pre-reaction. […] For the plate on which each index reaction had been performed, a fluorescent value of 7-HFC which is a metabolite was measured with a fluorescent plate reader. […]
Addition of only DMSO which is a solvent dissolving the compound of the present invention to a reaction system was adopted as a control (100%). Remaining activity (%) was calculated at each concentration of the compound of the present invention added as the solution, and IC50 was calculated by reverse-presumption by a logistic model using a concentration and an inhibition rate. […]

Data set [2] concerns the target T2, human TRPV4 (hTRPV4/CHO cells) (Homo sapiens, UniProt Q9HBA0).
T2 construct: expressed in transfected cells; host or cells: CHO-K1
Nature of the data set: Test Example 1: TRPV4 inhibitory activity (IC50 value), 4α-PDD stimulation, Fluo4 calcium fluorescence (FLIPR TETRA). Format: cell-based. The conditions noted are these: Test Example 1, 4α-PDD stimulation, read-out: Test 1 IC50.

Data set [3] relates to Salmonella typhimurium TA98 strain, TA100 strain. Kind of data set: Test Example 7: FAT test (mutagenicity). The following applies: TA98 and TA100 strains, non-metabolism activating and metabolism activating conditions. On the set-up: key: (−) means that mutagenicity is negative; (+) is positive. The protocol: Mutagenicity of a compound of the present invention was evaluated.
[…] of freezing-stored rat typhoid bacillus (Salmonella typhimurium TA98 strain, TA100 strain) was inoculated on 10 mL of a liquid nutrient medium (2.5% Oxoid nutrient broth No. 2), and this was cultured before shaking at 37° C. for 10 hours. 9 mL of a bacterial solution of the TA98 strain was centrifuged (2000×g, 10 minutes) to remove a culturing solution. The bacteria was suspended in 9 mL of a Micro F buffer (K2HPO4: 3.5 g/L, KH2PO4: 1 g/L, (NH4)2SO4: 1 g/L, trisodium citrate dehydrate: 0.25 g/L, MgSO4*7H2O: 0.1 g/L), the suspension was added to 110 mL of an Exposure medium (Micro F buffer containing Biotin: 8 μg/mL, histidine: 0.2 μg/mL, glucose: 8 mg/mL). The TA100 strain was added to 120 mL of the Exposure medium relative to 3.16 mL of the bacterial solution to prepare a test bacterial solution. […] Since a well containing a bacterium which has obtained the proliferation ability by mutation of an amino acid (histidine) synthesizing enzyme gene turns from purple to yellow due to a pH change, the bacterium proliferation well which has turned to yellow in 48 wells per dose was counted, and was assessed by comparing with a negative control group. […]

The nature of data set [4]: Test Example 11: BA test (oral absorbability). The conditions noted are these: plasma; Mouse, oral administration 1 mg/kg. The class given is in vivo. The protocol: Materials and methods for experiments to evaluate oral absorbability
(1) Experimental animals: rats or mice were used. (2) Breeding condition: rats or mice were allowed free access to solid feed and sterilized tap water (3) Setting of dosage and grouping: Oral administration and intravenous administration were performed with the predetermined dosage. Grouping was set as below. (Dosage varied depending on each compound)
Oral administration 1 to 30 mg/kg (n=2 to 3)
Intravenous administration 0.5 to 10 mg/kg (n=2 to 3)
(4) Preparation of administered liquid: Oral administration was performed using a solution or a suspension. Intravenous administration was performed after solubilization. (5) Method of Administration: In oral administration, compulsory administration to the stomach was conducted using an oral sonde. […] (6) Evaluation items: Blood was chronologically collected, and then concentration of a compound of the present invention in blood plasma was measured using a LC/MS/MS. […]
(7) Statistical analysis: With regard to a shift in plasma concentration of the compound of the present invention, the area under the plasma concentration-time curve (AUC) was calculated using a nonlinear least-squares program, WinNonlin (a registered trademark). Bioavailability (BA) was calculated from the AUCs of the oral administration group and the intravenous administration group. […]

T1 sequence (P08684 whole entry): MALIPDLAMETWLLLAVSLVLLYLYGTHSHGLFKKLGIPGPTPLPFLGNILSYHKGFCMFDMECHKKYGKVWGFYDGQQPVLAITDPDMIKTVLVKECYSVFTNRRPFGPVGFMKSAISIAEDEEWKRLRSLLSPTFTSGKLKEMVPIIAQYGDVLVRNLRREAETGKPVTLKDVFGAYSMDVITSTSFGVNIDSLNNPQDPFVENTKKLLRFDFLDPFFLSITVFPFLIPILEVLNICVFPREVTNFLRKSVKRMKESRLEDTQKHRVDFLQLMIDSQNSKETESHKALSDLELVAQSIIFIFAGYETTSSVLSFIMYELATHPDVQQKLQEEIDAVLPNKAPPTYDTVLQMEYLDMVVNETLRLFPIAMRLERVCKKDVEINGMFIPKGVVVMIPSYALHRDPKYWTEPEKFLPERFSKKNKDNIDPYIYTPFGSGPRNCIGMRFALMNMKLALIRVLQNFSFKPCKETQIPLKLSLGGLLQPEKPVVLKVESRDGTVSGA
T2 sequence (Q9HBA0 whole entry): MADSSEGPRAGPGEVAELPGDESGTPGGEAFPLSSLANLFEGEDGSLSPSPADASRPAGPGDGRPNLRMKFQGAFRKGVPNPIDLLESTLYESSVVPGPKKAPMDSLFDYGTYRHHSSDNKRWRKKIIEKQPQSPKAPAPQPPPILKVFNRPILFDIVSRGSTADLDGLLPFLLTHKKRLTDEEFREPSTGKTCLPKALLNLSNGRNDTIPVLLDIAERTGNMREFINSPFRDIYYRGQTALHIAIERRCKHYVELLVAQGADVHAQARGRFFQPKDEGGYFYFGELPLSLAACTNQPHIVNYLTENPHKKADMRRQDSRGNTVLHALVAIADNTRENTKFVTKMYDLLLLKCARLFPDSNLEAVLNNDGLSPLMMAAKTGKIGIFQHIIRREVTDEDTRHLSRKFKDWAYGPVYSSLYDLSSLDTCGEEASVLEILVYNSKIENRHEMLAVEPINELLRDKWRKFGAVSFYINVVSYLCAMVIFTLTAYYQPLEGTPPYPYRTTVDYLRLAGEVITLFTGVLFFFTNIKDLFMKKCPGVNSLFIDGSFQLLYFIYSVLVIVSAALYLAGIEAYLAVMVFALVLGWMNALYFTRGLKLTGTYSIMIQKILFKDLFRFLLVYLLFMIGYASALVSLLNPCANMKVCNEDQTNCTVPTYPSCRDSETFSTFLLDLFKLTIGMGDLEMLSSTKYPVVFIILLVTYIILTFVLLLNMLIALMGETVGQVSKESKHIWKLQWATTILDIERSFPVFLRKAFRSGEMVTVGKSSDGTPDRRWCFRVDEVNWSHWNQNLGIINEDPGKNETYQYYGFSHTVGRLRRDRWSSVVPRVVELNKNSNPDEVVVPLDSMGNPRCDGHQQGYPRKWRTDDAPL

A word on the pIC50: it is the negative decadic logarithm of the IC50, by convention in mol/L. As a reminder, the bioavailability is dose-corrected exposure relative to a reference, in per cent. Take `Cc1nc(CO)sc1-c1csc(NC(=O)Cn2cc(Cl)cn2)n1` [Compound I-131]: in data set [1], the “CYP3A4 fluorescent MBI test: difference between IC50 values without and with preincubation” value was “(−) (when the difference is 3 μM or less, this was defined as (−))”. Moreover, in data set [2], the negative-log IC50 (pIC50) was 6.00 to 7.00. Further, in data set [3], the “Mutagenicity (FAT test)” value was “(−)”. In addition, the bioavailability in data set [4] was 61.4%.
